Experiment [1] addresses T1, human GPR40 receptor (Homo sapiens, UniProt O14842). Briefly: Cytosolic calcium measurement using the FLIPR system. To be noted: FLIPR cytosolic Ca2+ peak height; 1321N1 cells stably expressing human GPR40; read-out: EC50 values on GPR40 determined as described in (A). The class given is cell-based. The method, then: (A) Cytosolic calcium measurement using the FLIPR system—1321N1 cells stably expressing human GPR40 receptor (Euroscreen, Belgium) were seeded 24 h before the assay in black clear-bottom collagen-coated 384-well plates in culture medium containing 10% FCS, 1% Na-Pyruvate and 400 μg/ml G418. On the assay day, wells were washed twice with 100 μL Krebs Ringer Buffer (KRB) containing 15 mM sodium hydrogencarbonate and 30 mM Hepes leaving 20 μl rest volume per well. Prior to stimulation the cells were loaded with the Ca^2+-sensitive fluorescent dye from the Calcium4 Assay Kit™ according to the Manufacturer's description (MDS Analytical technologies, Ismaning, Germany) for 80 min at room temperature in the dark, in the presence of 4 mM probenicid. Changes in cytosolic Ca^2+ concentration upon compound addition were monitored using a FLIPR Tetra device (Fluorescence Imaging Plate Reader; MDS Analytical technologies). The peak height of the obtained fluorescence signal was then used to calculate the EC50 values using GraphPad Prism 5 (Graphpad Software Inc, USA) using a sigmoidal curve fitting procedure allowing for a variable hill slope.

Experiment [2] deals with T1, human GPR40 receptor. Briefly: IP1 accumulation measurements using the IPOne assay system. The format is cell-based. To be noted: IP1 accumulation (IPOne HTRF), 1 hour stimulation; 1321N1 cells stably expressing human GPR40; read-out: EC50 values on GPR40 determined as described in (B). Here is the method: (B) IP1 accumulation measurements using the IPOne assay system—1321N1 cells stably expressing human GPR40 receptor (Euroscreen, Belgium) were seeded 24 h before the assay in black clear-bottom collagen-coated 384-well plates in culture medium containing 10% FCS, 1% Na-Pyruvate and 400 μg/mL G418. IP1 is assayed according to the Manufacturer's description (Cisbio Bioassays, France). In brief, the assay is started by substitution of the culture medium by stimulation buffer (Hepes 10 mM, CaCl2 1 mM, MgCl2 0.5 mM, KCl 4.2 mM, NaCl 146 mM and glucose 5.5 mM, pH 7.4) without LiCl. Cells are stimulated for 1 hour at 37°, 10% CO2 by addition of the compounds that were diluted in stimulation buffer containing LiCl yielding a final LiCl concentration of 50 mM. Assays are stopped by adding HTRF-conjugates (IP1-d2 and Anti-IP1 cryptate Tb) and lysis buffer, provided by the manufacturer. After an incubation time of 1 hour at room temperature plates are measured using an EnVision™, Perkin Elmer.

SMILES strings stand for the structures.

T1 sequence (O14842 whole entry): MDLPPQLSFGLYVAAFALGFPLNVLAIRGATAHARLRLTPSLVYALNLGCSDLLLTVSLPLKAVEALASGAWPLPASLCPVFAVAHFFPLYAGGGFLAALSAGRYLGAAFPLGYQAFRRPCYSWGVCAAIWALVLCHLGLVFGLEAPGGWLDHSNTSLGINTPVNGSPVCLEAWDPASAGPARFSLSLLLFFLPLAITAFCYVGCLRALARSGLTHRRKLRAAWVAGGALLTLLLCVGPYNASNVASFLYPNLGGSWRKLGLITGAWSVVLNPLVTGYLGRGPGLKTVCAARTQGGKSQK

What is called EC50 is the concentration at which the effect is half-maximal. Regarding `O=C(O)C[C@H]1COc2cc(O[C@H]3CCc4c3cccc4C(F)(F)F)ccc21` (single isomer, unassigned) [Example 2, [6-(4-Trifluoromethyl-indan-1-yloxy)-2,3-dihydro-benzofuran-3-yl]-acetic acid], the EC50 in experiment [1] was determined as 27 nM; in experiment [2], 20 nM. For `COc1ccc(-c2cccc3c2CC[C@H]3Oc2ccc3c(c2)OCC3CC(=O)O)cc1` (stereo partly drawn) [Example 10, {6-[(R)-4-(4-Methoxy-phenyl)-indan-1-yloxy]-2,3-dihydro-benzofuran-3-yl}-acetic acid], the figures for the EC50 in experiment [1] and in experiment [2] were 333 nM and 178 nM, respectively. For `Cn1ccc(-c2cccc3c2CC[C@H]3Oc2ccc3c(c2)OCC3CC(=O)O)cc1=O` (stereo partly drawn) [Example 9, {6-[(R)-4-(1-Methyl-2-oxo-1,2-dihydro-pyridin-4-yl)-indan-1-yloxy]-2,3-dihydro-benzofuran-3-yl}-acetic acid], the values for the half-maximal effective concentration (EC50) in experiment [1] and in experiment [2] were 3250 nM and greater than 10000 nM, respectively. For `Cn1cc(-c2cccc3c2CC[C@H]3Oc2ccc3c(c2)OCC3CC(=O)O)cn1` (stereo partly drawn) [Example 7, {6-[(R)-4-(1-Methyl-1H-pyrazol-4-yl)-indan-1-yloxy]-2,3-dihydro-benzofuran-3-yl}-acetic acid] the same measures were 710 nM and 2000 nM. Taken in the same sequence, the figures for `COC1(c2cccc3c2CC[C@H]3Oc2ccc3c(c2)OC[C@H]3CC(=O)O)CCC1` [Example 18, {(S)-6-[(R)-4-(1-Methoxy-cyclobutyl)-indan-1-yloxy]-2,3-dihydro-benzofuran-3-yl}-acetic acid] were 21 nM and 162 nM. Turning to `O=C(O)C[C@H]1COc2cc(O[C@H]3CCc4c3cccc4C(F)(F)F)ccc21` (stereo in doubt) [3/4, [6-(4-Trifluoromethyl-indan-1-yloxy)-2,3-dihydro-benzofuran-3-yl]-acetic acid], the EC50 is 186 nM in experiment [1] and 501 nM in experiment [2]. Turning to `CC1(C)CCCC1c1cccc2c1CC[C@H]2Oc1ccc2c(c1)OCC2CC(=O)O` (stereo partly drawn) [Example 16, {6-[(R)-4-(2,2-Dimethyl-cyclopentyl)-indan-1-yloxy]-2,3-dihydro-benzofuran-3-yl}-acetic acid], the EC50 in experiment [1] was found to be 3190 nM; in experiment [2], 47 nM.

On to `COC(c1cccc2c1CCC2Oc1ccc2c(c1)OC[C@H]2CC(=O)O)C1CCC1` (stereo partly drawn) [Example 14, {(S)-6-[4-(Cyclobutyl-methoxy-methyl)-indan-1-yloxy]-2,3-dihydro-benzofuran-3-yl}-acetic acid], for which the EC50 was 364 nM in experiment [1] and 125 nM in experiment [2]. Consider `O=C(O)CC1COc2cc(O[C@@H]3CCc4c(C5CCOCC5)cccc43)ccc21` (stereo partly drawn) [Example 12, {6-[(R)-4-(Tetrahydro-pyran-4-yl)-indan-1-yloxy]-2,3-dihydro-benzofuran-3-yl}-acetic acid], for which the results for the EC50 in experiment [1] and in experiment [2] were 459 nM and 2690 nM, respectively.

With `COC(c1cccc2c1CCC2Oc1ccc2c(c1)OCC2CC(=O)O)C(C)(C)C` (stereo not drawn) [Example 13, {6-[4-(1-Methoxy-2,2-dimethyl-propyl)-indan-1-yloxy]-2,3-dihydro-benzofuran-3-yl}-acetic acid], the EC50 was 583 nM in experiment [1] and 43 nM in experiment [2]. Taken in the same sequence, the figures for `CC1(C)CCC=C1c1cccc2c1CC[C@H]2Oc1ccc2c(c1)OCC2CC(=O)O` (mixture of isomers) [Example 15, {6-[(R)-4-(5,5-Dimethyl-cyclopent-1-enyl)-indan-1-yloxy]-2,3-dihydro-benzofuran-3-yl}-acetic acid] were 3840 nM and 30 nM.

As to `O=C(O)C[C@H]1COc2cc(O[C@H]3CCc4c3cccc4C(F)(F)F)ccc21` (single isomer, unassigned) [Example 5, [6-(4-Trifluoromethyl-indan-1-yloxy)-2,3-dihydro-benzofuran-3-yl]-acetic acid], the figures for the EC50 in experiment [1] and in experiment [2] were 2280 nM and 8990 nM, respectively.

`CC(C)(C)c1cccc2c1CC[C@H]2Oc1ccc2c(c1)OC[C@H]2CC(=O)O` [Example 96, {(S)-6-[(R)-4-tert-Butyl-indan-1-yloxy]-2,3-dihydro-benzofuran-3-yl}-acetic acid]: the EC50 in experiment [2] is 36 nM. Still for that read-out and setting: then `CC1(C)CCCO[C@H]1c1cccc2c1CC[C@H]2Oc1ccc2c(c1)OC[C@H]2CC(=O)O` (single isomer, unassigned) [Example 67], with 176 nM; and `COc1ccc(C)c(-c2cccc3c2CC[C@H]3Oc2ccc3c(c2)OC[C@H]3CC(=O)O)c1C` [Example 100, {(S)-6-[(R)-4-(3-Methoxy-2,6-dimethyl-phenyl)-indan-1-yloxy]-2,3-dihydro-benzofuran-3-yl}-acetic acid], with 26 nM. Still for that read-out and setting: then `O=C(O)C[C@@H]1COc2cc(O[C@H]3CCc4ccc(C(F)(F)F)cc43)ccc21` [Example 50, {(S)-6-[(S)-6-Trifluoromethyl-indan-1-yloxy]-2,3-dihydro-benzofuran-3-yl]-acetic acid], with 2970 nM; and `O=C(O)C[C@@H]1COc2cc(O[C@@H]3CCc4c(-c5nccc6ccccc56)cccc43)ccc21` [Example 77, {(S)-6-[(R)-4-Isoquinolin-1-yl-indan-1-yloxy]-2,3-dihydro-benzofuran-3-yl}-acetic acid], with 57 nM; and `CC1(C)CCC[C@H]1c1cccc2c1CC[C@H]2Oc1ccc2c(c1)OC[C@H]2CC(=O)O` (single isomer, unassigned) [Example 76], with 95 nM. Turning to `CC(C)(O)C(F)(F)c1cccc2c1CC[C@H]2Oc1ccc2c(c1)OC[C@H]2CC(=O)O` [Example 85, {(S)-6-[(R)-4-(1,1-Difluoro-2-hydroxy-2-methyl-propyl)-indan-1-yloxy]-2,3-dihydro-benzofuran-3-yl}-acetic acid], in experiment [2], the EC50 amounted to 3720 nM. The same measure, in the same setting: with `Cc1ccc(C(F)(F)F)c2c1[C@H](Oc1ccc3c(c1)OC[C@H]3CC(=O)O)CC2` [Example 30, {(S)-6-[(R)-7-Methyl-4-trifluoromethyl-indan-1-yloxy]-2,3-dihydro-benzofuran-3-yl}-acetic acid] the figure was 302 nM. On to `O=C(O)C[C@@H]1COc2cc(OC3CCc4ccccc43)ccc21` (stereo partly drawn) [Example 43], for which the half-maximal effective concentration (EC50) in experiment [2] is 420 nM.

As to `Cn1ccnc1-c1cccc2c1CC[C@H]2Oc1ccc2c(c1)OC[C@H]2CC(=O)O` [Example 57, {(S)-6-[(R)-4-(1-methyl-1H-imidazol-2-yl)-indan-1-yloxy]-2,3-dihydro-benzofuran-3-yl}-acetic acid], the EC50 in experiment [2] came to 8900 nM. The same measure, in the same setting: then `O=C(O)C[C@@H]1COc2cc(O[C@@H]3CCc4cccc(C(F)(F)F)c43)ccc21` [Example 23, {(S)-6-[(R)-7-Trifluoromethyl-indan-1-yloxy]-2,3-dihydro-benzofuran-3-yl}-acetic acid], with 9120 nM; and `CC1OC(c2cccc3c2CC[C@H]3Oc2ccc3c(c2)OC[C@H]3CC(=O)O)C1(C)C` (single isomer, unassigned) [Example 41], with 323 nM; and `COc1ncc(C)c(-c2cccc3c2CC[C@H]3Oc2ccc3c(c2)OC[C@H]3CC(=O)O)c1C` [Example 60, {(S)-6-[(R)-4-(2-Methoxy-3,5-dimethyl-pyridin-4-yl)-indan-1-yloxy]-2,3-dihydro-benzofuran-3-yl}-acetic acid], with 51 nM. Regarding `O=C(O)C[C@@H]1COc2cc(O[C@H]3CCc4ccc(Br)cc43)ccc21` [Example 55, {(S)-6-[(S)-6-Bromo-indan-1-yloxy]-2,3-dihydro-benzofuran-3-yl}-acetic acid], in experiment [2], the EC50 turned out to be 2910 nM. The same measure, in the same setting: then `CC(C)c1cccc2c1CC[C@H]2Oc1ccc2c(c1)OC[C@H]2CC(=O)O` [Example 32, {(S)-6-[(R)-4-Isopropyl-indan-1-yloxy]-2,3-dihydro-benzofuran-3-yl}-acetic acid], with 98 nM; and `CO[C@H](c1cccc2c1CC[C@H]2Oc1ccc2c(c1)OC[C@H]2CC(=O)O)C(F)(F)F` (single isomer, unassigned) [Example 38, {(S)-6-[(R)-4-((R)*-2,2,2-Trifluoro-1-methoxy-ethyl)-indan-1-yloxy]-2,3-dihydro-benzofuran-3-yl}-acetic acid], with 131 nM.

As to `COc1ccc(C)c(-c2cccc3c2CC[C@H]3Oc2ccc3c(c2)OC[C@H]3CC(=O)O)c1` [Example 71, {(S)-6-[(R)-4-(5-Methoxy-2-methyl-phenyl)-indan-1-yloxy]-2,3-dihydro-benzofuran-3-yl}-acetic acid], the EC50 in experiment [2] stood at 71 nM. Take `O=C(O)C[C@@H]1COc2cc(O[C@@H]3CCc4c3cccc4N3CCOCC3)ccc21` [Example 65, {(S)-6-[(R)-4-Morpholin-4-yl-indan-1-yloxy]-2,3-dihydro-benzofuran-3-yl}-acetic acid]: the concentration for a half-maximal effect (EC50) in experiment [2] was 1850 nM.

(Values after patent US20120302566A1, “INDANYLOXYDIHYDROBENZOFURANYLACETIC ACIDS” (BOEHRINGER INGELHEIM INTERNATIONAL GMBH, priority 2010, published 2012).)
